Experimental data from patent US20180037568A1, “MODULATORS OF METHYL MODIFYING ENZYMES, COMPOSITIONS AND USES THEREOF” (Constellation Pharmaceuticals, Inc., priority 2015, published 2018).
Like-named read-outs stand apart in the source and are kept apart here.

Key:
EZH2 = EZH2 (Homo sapiens, UniProt Q15910); assay: EZH2 nuc BSA Brij 1.5 (IC50): rPRC2, biotinylated oligonucleosome substrate, 3H SAM FlashPlate; assay type: biochemical; details: 2 nM EZH2, 0.2 μM biotinylated oligonucleosomes, 0.2 μM 3H SAM, 3.6 μM H3K27me3 peptide
Description: EZH2 Nuc BSA Brij 1.5 (IC50):
Assays were carried out by mixing rPRC2 together with biotinylated oligonucleosome substrates in the presence of the radio-labeled enzyme co-factor, S-adenosyl-L-methionine (^3H SAM) (Perkin Elmer) and monitoring the enzymatically mediated transfer of tritiated methyl groups from ^3H SAM to histone lysine residues. The amount of resulting tritiated methyl histone product was measured by first capturing the biotinylated oligonucleosomes in streptavidin (SAV) coated FlashPlates (Perkin Elmer), followed by a wash step to remove un-reacted ^3H SAM, and then counting on a TopCount NXT 384 well plate scintillation counter (Perkin Elmer). The final assay conditions for EZH2 were as follows: 50 mM Tris Buffer pH 8.5, 1 mM DTT, 69 μM Brij-35 detergent, 5.0 mM MgCl2, 0.1 mg/mL BSA, 0.2 μM ^3H SAM, 0.2 μM biotinylated oligonucleosomes, 3.6 μM H3K27me3 peptide and 2 nM EZH2.
Compound IC50 Measurements were Obtained as Follows:
Compounds were first dissolved in 100% DMSO as 10 mM stock solutions. Ten point dose response curves were generated by dispensing varying amounts of the 10 mM compound solution in 10 wells of the 384 well plate (Echo; Labcyte), pure DMSO was then used to backfill the wells to insure all wells have the same amount of DMSO. A 12.5 μL volume of the HMT enzyme, H3K27me3 peptide and oligonucleosome substrate in assay buffer was added to each well of the assay plate using a Multidrop Combi (ThermoFisher). Compounds were pre-incubated with the enzyme for 20 min, followed by initiation of the methyltransferase reaction by addition of 12.5 μL of ^3H SAM in assay buffer (final volume=25 μL). The final concentrations of compounds ranged from a top default concentration of 80 μM down to 0.16 μM in ten 2-fold dilution steps. Reactions were carried out for 60 minutes and quenched with 20 μL per well of 1.96 mM SAH, 50 mM Tris pH 8.5, 200 mM EDTA. Stopped reactions were transferred to SAV coated Flashplates (Perkin Elmer), incubated for 120 min, washed with a plate washer, and then read on the TopCount NXT (1.0 min/well) to measure the amount of methyl histone product formed during the reaction. The amount of methyl histone product was compared with the amount of product formed in the 0% and 100% inhibition control wells allowing the calculation of % Inhibition in the presence of the individual compounds at various concentrations. IC50's were computed using a 4 parameter fit non-linear curve fitting software package (XLFIT, part of the database package, ActivityBase (IDBS)) where the four parameters were IC50, Hill slope, pre-transitional baseline (0% INH), and post-transitional baseline (100% INH); with the latter two parameters being fixed to zero and 100%, respectively, by default.

H3K27me3 mark = assay: H3K27me3 Alpha Hela Assay (AlphaLISA); assay type: cell-based; details: Hela cells, read-out: EZH2 Cell H3K27me3 Alpha HeLa (EC50 K27me3)
Description: EC50 Measurements for Inhibitors in HeLa Cell Assays
H3K27me3 Alpha Hela Assay (AlphaLISA). Ten different doses of each test compound (in a series of 3-fold dilutions) were plated in duplicate 384-well tissue culture treated plates (Catalog #781080; Greiner Bio One; Monroe, N.C.). Hela cells grown in culture were trypsinized and counted using a Countess® cell counter (Catalog # C10281; Life Technologies, Grand Island, N.Y.). Cell were diluted to 67,000 cells per mL in 10% DMEM (Catalog #10569-010 Life Technologies, Grand Island, N.Y.) and 15 μL (1,000 cells) were plated into each well using the Biotek MicroFlo™ Select Dispenser (BioTek Instruments, Inc. Vermont, USA),) of the 384-well plate. Plates were incubated at 37° C./5% CO2 for 72 hrs. One of the duplicate plates was processed for HeLa assay and the other for viability.
To the plate processed for AlphaLISA was added 5 μL per well Cell-Histone Lysis buffer (1×) (Catalog # AL009F1 Perkin Elmer; Waltham, Mass.) and the plate was incubated at RT for 30 minutes on a plate shaker with low speed (Model#4625-Q Thermo Scientific; Waltham, Mass.). Then, 10 μL per well Histone Extraction buffer (catalog # AL009F2; Perkin Elmer; Waltham, Mass.) was added and the plate further incubated at RT for 20 min on plate shaker with low speed. To each well was then added 10 μL per well of a 5× mix of anti-K27me3 acceptor beads plus Biotinylated anti-Histone H3 (C-ter) Antibody (diluted to 3 nM final) (Catalog #AL118 Perkin Elmer; Waltham, Mass.). Dilution of the acceptor beads and then anti-Histone H3 was with 1× Histone Detection buffer (Catalog # AL009F3 Perkin Elmer; Waltham, Mass.) which was produced diluted from the 10× stock provided. The plate was sealed with an aluminum plate sealer and incubated at 23° C. for 60 min. We then added 10 μL 5× solution of Streptavidin Donor beads (Catalog #6760002 Perkin Elmer; Waltham, Mass.) (20 μg/mL final in 1× Histone Detection Buffer), sealed the plate with Aluminum plate sealer and incubated at 23° C. for 30 min. The plates were then read using an EnVision-Alpha Reader (model #2104 Perkin Elmer; Waltham, Mass.).
Data from both assays was analyzed using Assay Assistant (Constellation Pharmaceuticals In-house product) and Activity Base (IDBS Ltd, Surrey, UK) template. Data files were imported to Assay Assistant and assay conditions were specified. A unique Analysis ID was created and the data files exported to Activity Base. An analysis template was created on Activity Base to measure dose-dependent inhibition of H3K27me3 mark and cell viability respectively. Readout of DMSO wells were used to normalize the data. Resulting curves were fitted using Activity base software Model 205 (IDBS Ltd, Surrey, UK). The data was checked for quality, validated and integrated in excel format using SARview (IDBS Ltd, Surrey, UK).

PRC2 containing wt EZH2 = target: T1, PRC2 containing wt EZH2 (Homo sapiens, UniProt Q15910); assay: EZH2 pep BSA Brij 4.0 LowE (IC50): 3H-SAM incorporation into biotinylated H3 peptide; assay type: biochemical; details: 20 pM PRC2 wt EZH2, 0.9 μM 3H-SAM, biotinylated H3 peptide substrate, 2 μM H3K27me3 activating peptide
T1 construct: made in house
Description: EZH2 Pep BSA Brij 4.0 LowE (IC50):
Compound potencies were assessed through incorporation of ^3H-SAM into a biotinylated H3 peptide. Specifically, PRC2 containing wt EZH2 (20 pM), (pentameric complexes prepared in-house) was pre-incubated with ^3H-SAM (0.9 μM), 2 μM H3K27me3 activating peptide (H2N-RKQLATKAAR(Kme3)SAPATGGVKKP-amide) and compounds (as 10 point duplicate dose response titrations in DMSO, final assay 0.8% DMSO (v/v)) for 120 min in 50 mM Tris (pH 8.5), 1 mM DTT, 0.07 mM Brij-35, 0.1% BSA, and 0.8% DMSO in a total volume of 12.5 μl. Reaction was initiated with biotinylated H3 substrate peptide (H2N-RKQLATKAAR(Kme1)SAPATGGVKKP-NTPEGBiot) as a 2 μM stock in 12.5 μl of buffer and allowed to react at room temperature for 5 h. Quenching was accomplished by addition of 20 μl of STOP solution (50 mM Tris (pH 8.5), 200 mM EDTA, 2 mM SAH). 35 μl of the quenched solution was transferred to Streptavidin Flashplates, incubated overnight, washed, and read in a TopCount Reader (Perkin Elmer). IC50s were calculated relative to fully active and no enzyme control wells using non-linear least square four parameter fits.

[1] = EZH2 pep BSA Brij 4.0 LowE (IC50)

T1 sequence (Q15910 whole entry): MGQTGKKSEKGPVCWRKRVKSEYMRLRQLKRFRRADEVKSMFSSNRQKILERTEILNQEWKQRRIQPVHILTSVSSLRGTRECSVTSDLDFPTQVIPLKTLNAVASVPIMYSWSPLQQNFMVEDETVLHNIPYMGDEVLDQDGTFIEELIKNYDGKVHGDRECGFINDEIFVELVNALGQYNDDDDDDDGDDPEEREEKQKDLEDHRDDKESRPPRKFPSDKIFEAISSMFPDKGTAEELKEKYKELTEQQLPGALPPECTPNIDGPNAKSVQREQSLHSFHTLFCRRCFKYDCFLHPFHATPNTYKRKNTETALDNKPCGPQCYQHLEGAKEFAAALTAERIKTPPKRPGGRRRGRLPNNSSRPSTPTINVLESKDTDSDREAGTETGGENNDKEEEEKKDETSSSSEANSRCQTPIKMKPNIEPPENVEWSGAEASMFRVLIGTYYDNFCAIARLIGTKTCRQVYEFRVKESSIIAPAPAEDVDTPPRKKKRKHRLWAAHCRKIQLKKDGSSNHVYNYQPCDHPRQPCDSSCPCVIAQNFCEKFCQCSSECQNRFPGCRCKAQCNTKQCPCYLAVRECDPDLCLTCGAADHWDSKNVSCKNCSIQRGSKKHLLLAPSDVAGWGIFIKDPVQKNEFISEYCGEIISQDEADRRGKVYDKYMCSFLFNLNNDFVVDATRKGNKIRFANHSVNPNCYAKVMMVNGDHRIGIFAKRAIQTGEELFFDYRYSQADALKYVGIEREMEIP
T1 sequence (O75530 whole entry partner): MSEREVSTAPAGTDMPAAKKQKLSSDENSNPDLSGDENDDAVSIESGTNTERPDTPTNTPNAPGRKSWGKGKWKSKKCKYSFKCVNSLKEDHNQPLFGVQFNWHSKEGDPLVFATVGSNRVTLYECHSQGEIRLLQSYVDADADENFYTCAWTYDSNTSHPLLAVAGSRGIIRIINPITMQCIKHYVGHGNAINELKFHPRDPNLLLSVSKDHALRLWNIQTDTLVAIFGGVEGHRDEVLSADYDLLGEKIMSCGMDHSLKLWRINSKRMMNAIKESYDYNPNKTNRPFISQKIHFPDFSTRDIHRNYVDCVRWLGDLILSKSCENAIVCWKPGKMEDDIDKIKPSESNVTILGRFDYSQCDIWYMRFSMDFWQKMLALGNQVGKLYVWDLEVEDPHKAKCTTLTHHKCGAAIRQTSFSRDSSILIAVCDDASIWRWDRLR
T1 sequence (Q15022 whole entry partner): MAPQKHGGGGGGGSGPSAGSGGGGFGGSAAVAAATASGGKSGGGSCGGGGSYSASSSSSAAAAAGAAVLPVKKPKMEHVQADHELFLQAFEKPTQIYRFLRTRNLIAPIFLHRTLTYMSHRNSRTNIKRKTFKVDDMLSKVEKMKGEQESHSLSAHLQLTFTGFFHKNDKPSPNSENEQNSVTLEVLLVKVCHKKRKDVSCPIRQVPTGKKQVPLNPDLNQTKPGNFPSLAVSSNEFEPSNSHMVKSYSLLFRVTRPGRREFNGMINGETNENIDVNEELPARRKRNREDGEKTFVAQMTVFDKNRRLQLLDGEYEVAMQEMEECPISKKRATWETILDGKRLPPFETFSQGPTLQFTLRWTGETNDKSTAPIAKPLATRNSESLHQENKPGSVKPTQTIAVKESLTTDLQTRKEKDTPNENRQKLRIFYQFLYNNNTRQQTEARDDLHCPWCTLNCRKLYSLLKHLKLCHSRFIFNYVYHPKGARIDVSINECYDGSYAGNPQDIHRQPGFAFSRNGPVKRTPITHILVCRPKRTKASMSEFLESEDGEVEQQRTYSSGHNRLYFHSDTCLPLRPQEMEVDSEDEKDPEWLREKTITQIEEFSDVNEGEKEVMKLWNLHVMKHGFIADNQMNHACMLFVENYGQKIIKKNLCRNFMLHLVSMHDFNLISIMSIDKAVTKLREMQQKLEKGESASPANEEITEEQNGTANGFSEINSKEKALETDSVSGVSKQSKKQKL
T1 sequence (Q09028 whole entry partner): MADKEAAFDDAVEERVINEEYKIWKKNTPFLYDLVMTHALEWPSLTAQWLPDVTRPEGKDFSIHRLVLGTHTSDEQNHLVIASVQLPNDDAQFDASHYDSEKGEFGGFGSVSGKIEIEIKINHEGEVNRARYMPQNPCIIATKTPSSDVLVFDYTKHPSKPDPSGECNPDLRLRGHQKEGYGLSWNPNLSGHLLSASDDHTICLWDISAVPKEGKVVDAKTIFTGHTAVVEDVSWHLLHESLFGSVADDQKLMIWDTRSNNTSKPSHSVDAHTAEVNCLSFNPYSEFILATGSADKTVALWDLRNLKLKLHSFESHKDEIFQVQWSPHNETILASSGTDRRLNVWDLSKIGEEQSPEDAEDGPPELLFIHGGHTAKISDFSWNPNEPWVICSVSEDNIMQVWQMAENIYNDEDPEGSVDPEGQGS
T1 sequence (Q6ZN18 whole entry partner): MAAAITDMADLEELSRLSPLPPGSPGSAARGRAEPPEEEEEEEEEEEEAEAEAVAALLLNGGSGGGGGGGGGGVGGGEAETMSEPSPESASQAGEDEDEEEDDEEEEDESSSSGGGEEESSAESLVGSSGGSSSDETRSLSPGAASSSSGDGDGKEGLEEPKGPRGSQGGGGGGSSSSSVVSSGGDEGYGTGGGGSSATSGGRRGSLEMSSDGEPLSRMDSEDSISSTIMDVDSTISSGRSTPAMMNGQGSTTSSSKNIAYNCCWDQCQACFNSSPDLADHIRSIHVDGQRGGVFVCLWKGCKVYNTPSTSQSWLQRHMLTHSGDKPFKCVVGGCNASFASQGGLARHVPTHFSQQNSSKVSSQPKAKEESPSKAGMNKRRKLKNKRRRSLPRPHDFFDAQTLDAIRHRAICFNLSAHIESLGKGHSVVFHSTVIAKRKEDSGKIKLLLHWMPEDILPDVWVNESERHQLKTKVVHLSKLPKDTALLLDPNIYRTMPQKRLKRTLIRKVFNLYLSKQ
EZH2, sequence (Q15910 whole entry): as the sequence (Q15910 whole entry) above
EZH2, sequence (O75530 whole entry partner): as the sequence (O75530 whole entry partner) above
EZH2, sequence (Q15022 whole entry partner): as the sequence (Q15022 whole entry partner) above

In the case of COc1cc(C)[nH]c(=O)c1CNC(=O)c1c(C)n(C(C)C2CCNc3ccccc32)c2ccccc12 (single isomer, unassigned) [Compound 1], the IC50 (EZH2; EZH2 nuc BSA Brij 1.5 (IC50)) is reported as < 100 nM and the EC50 (H3K27me3 mark; Homo sapiens, HeLa, 72 h) is reported as > 2000 nM.

For CCN1CCC(C(C)n2c(C)c(C(=O)NCc3c(OC)cc(C)[nH]c3=O)c3ccccc32)CC1C(F)(F)F (single isomer, unassigned) [Compound 9, 1-(1-(1-ethyl-2-(trifluoromethyl)piperidin-4-yl)ethyl)-N-((4-methoxy-6-methyl-2-oxo-1,2-dihydropyridin-3-yl)methyl)-2-methyl-1H-indole-3-carboxamide], the IC50 (EZH2; EZH2 nuc BSA Brij 1.5 (IC50)) was < 100 nM and the EC50 (H3K27me3 mark; 72 hrs) was > 2000 nM.

For CCN1CCC(C(C)n2c(C)c(C(=O)NCc3c(OC)cc(C)[nH]c3=O)c3ccccc32)CC1C(F)(F)F (single isomer, unassigned) [Compound 10, 1-(1-(1-ethyl-2-(trifluoromethyl)piperidin-4-yl)ethyl)-N-((4-methoxy-6-methyl-2-oxo-1,2-dihydropyridin-3-yl)methyl)-2-methyl-1H-indole-3-carboxamide], the IC50 (EZH2; read-out: EZH2 nuc BSA Brij 1.5 (IC50)) was < 100 nM and the EC50 (H3K27me3 mark; 72 hrs) was < 400 nM.

With COc1cc(C)[nH]c(=O)c1CNC(=O)c1c(C)n(C(C)C2CCNC(C(F)(F)F)C2)c2ccccc12 (single isomer, unassigned) [Compound 12, N-((4-methoxy-6-methyl-2-oxo-1,2-dihydropyridin-3-yl)methyl)-2-methyl-1-(1-(2-(trifluoromethyl)piperidin-4-yl)ethyl)-1H-indole-3-carboxamide] the IC50 (EZH2; EZH2 nuc BSA Brij 1.5 (IC50)) was < 100 nM.

With COc1cc(C)[nH]c(=O)c1CNC(=O)c1c(C)n(C(C)C2CCN(C)C(C(F)(F)F)C2)c2ccccc12 (single isomer, unassigned) [Compound 13, N-((4-methoxy-6-methyl-2-oxo-1,2-dihydropyridin-3-yl)methyl)-2-methyl-1-(1-(1-methyl-2-(trifluoromethyl)piperidin-4-yl)ethyl)-1H-indole-3-carboxamide] the IC50 (EZH2; EZH2 nuc BSA Brij 1.5 (IC50)) was < 100 nM and the EC50 (H3K27me3 mark; Homo sapiens, HeLa, 72 h) was 400 to 2000 nM.

With Cc1cc(C)c(CNC(=O)c2c(C)n(C(C)C3CCNC(C(F)(F)F)C3)c3ccccc23)c(=O)[nH]1 (single isomer, unassigned) [Compound 16, N-((4,6-dimethyl-2-oxo-1,2-dihydropyridin-3-yl)methyl)-2-methyl-1-(1-(2-(trifluoromethyl)piperidin-4-yl)ethyl)-1H-indole-3-carboxamide] the IC50 (EZH2; EZH2 nuc BSA Brij 1.5 (IC50)) was < 100 nM.

With COc1cc(C)[nH]c(=O)c1CNC(=O)c1c(C)n(C(C)C2CCNC(C(F)(F)F)C2)c2ccccc12 (single isomer, unassigned) [Compound 20, N-((4-methoxy-6-methyl-2-oxo-1,2-dihydropyridin-3-yl)methyl)-2-methyl-1-(1-(2-(trifluoromethyl)piperidin-4-yl)ethyl)-1H-indole-3-carboxamide] the IC50 (EZH2; EZH2 nuc BSA Brij 1.5 (IC50)) was < 100 nM and the EC50 (H3K27me3 mark; 72 hrs) was 400 to 2000 nM.

COc1cc(C)[nH]c(=O)c1CNC(=O)c1c(C)n(C(C)C2CCNC(C(F)(F)F)C2)c2ccccc12 (single isomer, unassigned) [Compound 22, N-((4-methoxy-6-methyl-2-oxo-1,2-dihydropyridin-3-yl)methyl)-2-methyl-1-(1-(2-(trifluoromethyl)piperidin-4-yl)ethyl)-1H-indole-3-carboxamide] was tested, and the IC50 (EZH2; EZH2 nuc BSA Brij 1.5 (IC50)) was < 100 nM and the EC50 (H3K27me3 mark; 72 hrs) was 400 to 2000 nM.

In the case of COc1cc(C)[nH]c(=O)c1CNC(=O)c1c(C)n(C(C)C2CCNC(C(F)(F)F)C2)c2ccccc12 (single isomer, unassigned) [Compound 23, N-((4-methoxy-6-methyl-2-oxo-1,2-dihydropyridin-3-yl)methyl)-2-methyl-1-(1-(2-(trifluoromethyl)piperidin-4-yl)ethyl)-1H-indole-3-carboxamide], the IC50 (EZH2; EZH2 nuc BSA Brij 1.5 (IC50)) is reported as 100 to 1000 nM and the EC50 (H3K27me3 mark; 72 hrs) is reported as > 2000 nM.

For COc1cc(C)[nH]c(=O)c1CNC(=O)c1c(C)n(C(C)C2CCN(C)c3ccccc32)c2ccccc12 (centres unmarked) [Compound 3, N-((4-methoxy-6-methyl-2-oxo-1,2-dihydropyridin-3-yl)methyl)-2-methyl-1-(1-(1-methyl-1,2,3,4-tetrahydroquinolin-4-yl)ethyl)-1H-indole-3-carboxamide], the IC50 (EZH2; EZH2 nuc BSA Brij 1.5 (IC50)) was < 100 nM.

For COc1cc(C)[nH]c(=O)c1CNC(=O)c1c(C)n(C(C)C2CCN(C)C(c3cccc(C#N)c3)C2)c2ccccc12 (centres unmarked) [Compound 95], the IC50 (PRC2 containing wt EZH2; [1]) was < 100 nM and the EC50 (H3K27me3 mark; Homo sapiens, HeLa, 72 h) was 400 to 2000 nM.

For COc1cc(C)[nH]c(=O)c1CNC(=O)c1c(C)n(C(C)C2CCN(C)C(c3cccc(C#N)c3)C2)c2ccccc12 (centres unmarked) [Compound 96], the IC50 (PRC2 containing wt EZH2; read-out: EZH2 pep BSA Brij 4.0 LowE (IC50)) was < 100 nM and the EC50 (H3K27me3 mark; 72 hrs) was 400 to 2000 nM.

COc1cc(C)[nH]c(=O)c1CNC(=O)c1c(C)n(C(C)C2CCN(C)C(c3cccc(C(=O)O)c3)C2)c2ccccc12 (centres unmarked) [Compound 97] was tested, and the IC50 (PRC2 containing wt EZH2; [1]) was < 100 nM and the EC50 (H3K27me3 mark; 72 hrs) was > 2000 nM.
